Results taken from PubChem BioAssay (NCI).
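Each compound was tested at five concentrations against cells in 96-well plates for 48 hours. GI50: concentration for 50% inhibition of growth. TGI denotes the concentration required for complete inhibition of growth.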

What was measured:
Assay in all cases: NCI tumour cell line growth inhibition, 48 h
SW-620 colon = test system: SW-620 colon
NCI/ADR-RES ovarian = test system: NCI/ADR-RES ovarian
HCT-116 colon = test system: HCT-116 colon
A498 renal = test system: A498 renal
PC-3 prostate = test system: PC-3 prostate
HOP-62 NSCLC = test system: HOP-62 NSCLC
NCI-H460 lung = test system: NCI-H460 lung
EKVX NSCLC = test system: EKVX NSCLC
SR leukemia = test system: SR leukemia
MDA-MB-435 = test system: MDA-MB-435

## C/C(=N\NC(=S)N1CCC(N2CCCCC2)CC1)c1ccccn1
SW-620 colon
  TGI: 12.2 µM
NCI/ADR-RES ovarian
  TGI: 5.67 µM
HCT-116 colon
  TGI: 7.02 µM
A498 renal
  TGI: 5.21 µM
PC-3 prostate
  TGI: 10.3 µM
HOP-62 NSCLC
  TGI: > 19.8 µM
NCI-H460 lung
  TGI: 7.23 µM
EKVX NSCLC
  TGI: 12.1 µM
SR leukemia
  TGI: 9.74 µM
MDA-MB-435
  TGI: 6 µM

## CCOC(=O)/C=C/c1c(C)[nH]c(=O)[nH]c1=O
SW-620 colon
  TGI: > 250 µM
NCI/ADR-RES ovarian
  TGI: > 250 µM
HCT-116 colon
  TGI: > 250 µM
A498 renal
  TGI: > 250 µM
HOP-62 NSCLC
  TGI: > 250 µM
NCI-H460 lung
  TGI: > 250 µM
EKVX NSCLC
  TGI: > 250 µM

## CCOC(=O)NC(Nc1cc(Cl)ccc1OC)(C(F)(F)F)C(F)(F)F
SW-620 colon
  TGI: > 100 µM
HCT-116 colon
  TGI: > 100 µM
A498 renal
  TGI: > 100 µM
HOP-62 NSCLC
  TGI: > 100 µM
NCI-H460 lung
  TGI: > 100 µM
EKVX NSCLC
  TGI: > 100 µM
SR leukemia
  TGI: > 100 µM
MDA-MB-435
  TGI: > 100 µM

## CN=C(Nc1ccc(OC)c2ccccc12)SC
SW-620 colon
  TGI: > 10 µM
NCI/ADR-RES ovarian
  TGI: > 10 µM
HCT-116 colon
  TGI: > 10 µM
PC-3 prostate
  TGI: > 10 µM
HOP-62 NSCLC
  TGI: > 10 µM
SR leukemia
  TGI: > 10 µM
MDA-MB-435
  TGI: > 10 µM

## O=c1[nH]c(SCc2cccc([N+](=O)[O-])c2)nc2nc[nH]c12
SW-620 colon
  TGI: > 100 µM
NCI/ADR-RES ovarian
  TGI: > 100 µM
HCT-116 colon
  TGI: > 100 µM
A498 renal
  TGI: > 100 µM
PC-3 prostate
  TGI: > 100 µM
HOP-62 NSCLC
  TGI: > 100 µM
NCI-H460 lung
  TGI: > 100 µM
EKVX NSCLC
  TGI: > 100 µM
SR leukemia
  TGI: > 100 µM
MDA-MB-435
  TGI: > 100 µM

## O=c1nc2ccc([N+](=O)[O-])cc2[n+]([O-])[nH]1
SW-620 colon
  TGI: > 100 µM
NCI/ADR-RES ovarian
  TGI: > 100 µM
HCT-116 colon
  TGI: > 100 µM
A498 renal
  TGI: > 100 µM
PC-3 prostate
  TGI: > 100 µM
HOP-62 NSCLC
  TGI: > 100 µM
NCI-H460 lung
  TGI: > 100 µM
EKVX NSCLC
  TGI: > 100 µM
SR leukemia
  TGI: > 100 µM
MDA-MB-435
  TGI: > 100 µM

## c1ccc2c(c1)c1ccccc1n2Cn1c2ccccc2c2ccccc21
SW-620 colon
  TGI: > 100 µM
NCI/ADR-RES ovarian
  TGI: > 100 µM
A498 renal
  TGI: > 100 µM
PC-3 prostate
  TGI: > 100 µM
HOP-62 NSCLC
  TGI: > 100 µM
NCI-H460 lung
  TGI: > 100 µM
EKVX NSCLC
  TGI: > 100 µM
SR leukemia
  TGI: > 100 µM
MDA-MB-435
  TGI: > 100 µM

## c1cc2c3c(c1)c1cc4c(cc1c[n+]3CC2)OCO4
SW-620 colon
  TGI: 109 µM
NCI/ADR-RES ovarian
  TGI: > 225 µM
HCT-116 colon
  TGI: 75.9 µM
A498 renal
  TGI: 14.9 µM
HOP-62 NSCLC
  TGI: 15.4 µM
NCI-H460 lung
  TGI: 12.2 µM
EKVX NSCLC
  TGI: 14.4 µM

## COc1cc(-c2ccc(N=Nc3ccc4c(S(=O)(=O)O)cc(S(=O)(=O)O)c(N)c4c3O)c(OC)c2)ccc1N=Nc1ccc2c(S(=O)(=O)O)cc(S(=O)(=O)O)c(N)c2c1O
SW-620 colon
  TGI: > 100 µM
NCI/ADR-RES ovarian
  TGI: > 100 µM
HCT-116 colon
  TGI: > 100 µM
A498 renal
  TGI: > 100 µM
HOP-62 NSCLC
  TGI: > 100 µM
NCI-H460 lung
  TGI: > 100 µM
EKVX NSCLC
  TGI: > 100 µM

## COc1cccc2c1C(=O)c1c(O)c3c(c(O)c1C2=O)C[C@@](O)(C(=O)COC(=O)c1ccccc1)C[C@@H]3OC1CC(N)C(O)C(C)O1 (stereo not given in full)
SW-620 colon
  GI50: 0.0448 µM
  TGI: 0.253 µM
NCI/ADR-RES ovarian
  GI50: 1.44 µM
  TGI: 4.1 µM
A498 renal
  GI50: 0.0771 µM
  TGI: 0.261 µM
PC-3 prostate
  GI50: 0.194 µM
  TGI: 0.744 µM
NCI-H460 lung
  GI50: 0.0167 µM
  TGI: 0.182 µM
SR leukemia
  TGI: 0.225 µM
MDA-MB-435
  GI50: 0.137 µM
  TGI: 0.284 µM

## C/C(=N\NC(=O)c1ccc(Cl)cc1)c1nc2ncccc2[nH]1
SW-620 colon
  TGI: > 100 µM
NCI/ADR-RES ovarian
  TGI: 50.1 µM
HCT-116 colon
  TGI: > 100 µM
A498 renal
  TGI: > 100 µM
PC-3 prostate
  TGI: > 100 µM
HOP-62 NSCLC
  TGI: > 100 µM
NCI-H460 lung
  TGI: > 100 µM
EKVX NSCLC
  TGI: > 100 µM
SR leukemia
  TGI: > 100 µM
MDA-MB-435
  TGI: > 100 µM

## O=C(/C=C1\Sc2ccccc2N=C1CC(=O)c1ccccc1)c1ccccc1
SW-620 colon
  TGI: 22.5 µM
NCI/ADR-RES ovarian
  TGI: 18.7 µM
HCT-116 colon
  TGI: 19.2 µM
A498 renal
  TGI: > 100 µM
PC-3 prostate
  TGI: > 100 µM
HOP-62 NSCLC
  TGI: 19.8 µM
NCI-H460 lung
  TGI: 27.5 µM
EKVX NSCLC
  TGI: 37.4 µM
SR leukemia
  TGI: 16 µM
MDA-MB-435
  TGI: 29.6 µM

## O=c1oc(-c2ccc(O)cc2)cc2cc(O)ccc12
SW-620 colon
  TGI: 87.8 µM
NCI/ADR-RES ovarian
  TGI: 47.9 µM
HCT-116 colon
  TGI: 39 µM
A498 renal
  TGI: 51.7 µM
PC-3 prostate
  TGI: 94 µM
HOP-62 NSCLC
  TGI: > 100 µM
NCI-H460 lung
  TGI: 58.2 µM
EKVX NSCLC
  TGI: > 100 µM
MDA-MB-435
  TGI: 78.9 µM

## O=C(NN1C(=O)C(Cl)C1c1cccc([N+](=O)[O-])c1)c1ccccc1O (stereo not given)
SW-620 colon
  TGI: > 100 µM
HCT-116 colon
  TGI: > 100 µM
HOP-62 NSCLC
  TGI: > 100 µM
NCI-H460 lung
  TGI: > 100 µM
EKVX NSCLC
  TGI: > 100 µM
SR leukemia
  TGI: > 100 µM

## COc1ccc(C2=[S+]C(c3ccccc3)(c3ccccc3)c3ccccc32)cc1
SW-620 colon
  TGI: > 100 µM
NCI/ADR-RES ovarian
  TGI: > 100 µM
HCT-116 colon
  TGI: 24.3 µM
A498 renal
  TGI: 44.6 µM
PC-3 prostate
  TGI: > 100 µM
HOP-62 NSCLC
  TGI: 79.3 µM
NCI-H460 lung
  TGI: 30.5 µM
EKVX NSCLC
  TGI: > 100 µM
MDA-MB-435
  TGI: 41.1 µM

## O=C(N/N=C\c1cccc2ccccc12)Nc1ccccc1
SW-620 colon
  TGI: > 100 µM
NCI/ADR-RES ovarian
  TGI: > 100 µM
HCT-116 colon
  TGI: > 100 µM
A498 renal
  TGI: > 100 µM
PC-3 prostate
  TGI: > 100 µM
HOP-62 NSCLC
  TGI: > 100 µM
NCI-H460 lung
  TGI: > 100 µM
SR leukemia
  TGI: > 100 µM
MDA-MB-435
  TGI: > 100 µM

## c1ccc2c(c1)NCc1cc3ccccc3nc1O2
SW-620 colon
  TGI: > 100 µM
NCI/ADR-RES ovarian
  TGI: > 100 µM
HCT-116 colon
  TGI: > 100 µM
A498 renal
  TGI: > 100 µM
HOP-62 NSCLC
  TGI: > 100 µM
NCI-H460 lung
  TGI: > 100 µM
EKVX NSCLC
  TGI: > 100 µM

## N#[N+]c1c([O-])c2ccccc2c2ccccc12
SW-620 colon
  TGI: > 100 µM
NCI/ADR-RES ovarian
  TGI: > 100 µM
HCT-116 colon
  TGI: > 100 µM
A498 renal
  TGI: 46.9 µM
PC-3 prostate
  TGI: > 100 µM
HOP-62 NSCLC
  TGI: > 100 µM
NCI-H460 lung
  TGI: > 100 µM
EKVX NSCLC
  TGI: 72.8 µM
SR leukemia
  TGI: > 100 µM
MDA-MB-435
  TGI: > 100 µM

## Cc1cn(-c2cccc(NC(=O)c3ccc(C)c(Nc4nccc(-c5cccnc5)n4)c3)c2)cn1
SW-620 colon
  GI50: 2.25 µM
  TGI: 4.76 µM
NCI/ADR-RES ovarian
  GI50: 2.83 µM
  TGI: 10.1 µM
HCT-116 colon
  GI50: 1.64 µM
  TGI: 3.05 µM
A498 renal
  GI50: 10.9 µM
  TGI: 23 µM
PC-3 prostate
  GI50: 2.33 µM
  TGI: 13.5 µM
HOP-62 NSCLC
  GI50: 2 µM
  TGI: 3.77 µM
NCI-H460 lung
  GI50: 1.97 µM
  TGI: 4.05 µM
EKVX NSCLC
  GI50: 2.16 µM
  TGI: 6 µM
SR leukemia
  GI50: 2.08 µM
  TGI: 5.02 µM
MDA-MB-435
  GI50: 1.86 µM
  TGI: 3.87 µM

## Cc1ccc(Cl)cc1N=NC(=O)NNc1cc(Cl)ccc1C
NCI/ADR-RES ovarian
  TGI: 63.9 µM
HCT-116 colon
  TGI: 51.6 µM
A498 renal
  TGI: 48.8 µM
PC-3 prostate
  TGI: 46.3 µM
HOP-62 NSCLC
  TGI: 23.6 µM
NCI-H460 lung
  TGI: 39 µM
SR leukemia
  TGI: > 100 µM
MDA-MB-435
  TGI: 99 µM

## Cc1cc(N/N=C/c2nc(-c3ccc(Cl)cc3)oc2C)c2cc(Br)ccc2n1
SW-620 colon
  GI50: 1.87 µM
  TGI: 4.23 µM
NCI/ADR-RES ovarian
  GI50: 2.17 µM
  TGI: 4.94 µM
HCT-116 colon
  GI50: 2 µM
  TGI: 4.04 µM
A498 renal
  GI50: 10.4 µM
  TGI: 26.5 µM
PC-3 prostate
  GI50: 2.31 µM
  TGI: 6.07 µM
HOP-62 NSCLC
  GI50: 1.87 µM
  TGI: 3.94 µM
NCI-H460 lung
  GI50: 1.88 µM
  TGI: 3.67 µM
EKVX NSCLC
  GI50: 14.4 µM
  TGI: 28.1 µM
MDA-MB-435
  GI50: 1.91 µM
  TGI: 3.94 µM

## O=C1C(CO)=C[C@H](O)[C@H]2O[C@@H]12
SW-620 colon
  TGI: 284 µM
NCI/ADR-RES ovarian
  TGI: 449 µM
HCT-116 colon
  TGI: 225 µM
A498 renal
  TGI: 519 µM
HOP-62 NSCLC
  TGI: > 612 µM
NCI-H460 lung
  TGI: 420 µM
EKVX NSCLC
  TGI: 215 µM

## O=C1CCC[C@H]2O[C@@H](COC(=O)c3ccccc3)C[C@H]2O1
SW-620 colon
  TGI: > 100 µM
NCI/ADR-RES ovarian
  TGI: > 100 µM
A498 renal
  TGI: > 100 µM
PC-3 prostate
  TGI: > 100 µM
HOP-62 NSCLC
  TGI: > 100 µM
NCI-H460 lung
  TGI: > 100 µM
EKVX NSCLC
  TGI: > 100 µM
SR leukemia
  TGI: > 100 µM
MDA-MB-435
  TGI: > 100 µM
